The values below come from patent US8765786B2, “1-substituted indazole derivative” (Dainippon Sumitomo Pharma Co., Ltd., priority 2012, dated 2014).

One test deals with T1, human α7 nAChR (Homo sapiens, UniProt P36544).
T1 construct: expressed in transfected cells; host or cells: GH4C1 cells derived from rat pituitary (ATCC CCL-82.2)
T1 sequence (P36544 23-502): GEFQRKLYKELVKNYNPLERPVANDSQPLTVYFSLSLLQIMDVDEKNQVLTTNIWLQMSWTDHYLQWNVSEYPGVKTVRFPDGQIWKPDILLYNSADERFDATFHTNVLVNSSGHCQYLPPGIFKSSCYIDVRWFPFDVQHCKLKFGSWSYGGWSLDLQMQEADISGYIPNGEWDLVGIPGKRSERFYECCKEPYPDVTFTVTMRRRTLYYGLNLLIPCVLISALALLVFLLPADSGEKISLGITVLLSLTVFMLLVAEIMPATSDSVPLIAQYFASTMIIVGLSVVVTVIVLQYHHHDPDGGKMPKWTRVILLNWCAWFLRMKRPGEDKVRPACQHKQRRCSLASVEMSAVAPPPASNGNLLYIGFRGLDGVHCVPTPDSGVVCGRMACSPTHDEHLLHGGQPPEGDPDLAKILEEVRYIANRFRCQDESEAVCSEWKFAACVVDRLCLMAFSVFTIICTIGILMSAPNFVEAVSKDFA
As to the kind of experiment: Evaluation of PAM activity with human α7 nACh receptor stably expressing cells (aequorin luminescence, FDSS7000). The test is classed as cell-based. As to conditions: result in words; ratio of RLU (Max-Min) to control wells, ACh EC20. The essentials: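 PAM activity defined as RLU (Max-Min) of compound wells over control wells, from 465 nm aequorin luminescence tracked 138 s after ACh challenge. Host: GH4C1 (rat pituitary) stably co-expressing human α7 nAChR and aequorin, pre-loaded 4 h with 4 μmol/L luminescent substrate.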
In the case of `CCc1ccc2c(cnn2C2CCN(C(=O)NC3CCC(F)(F)CC3)CC2)c1` [Example 23], the “PAM activity for α7 nAChR” value is “stronger PAM activity than others”. Same read-out and setting: to `COc1ccc2c(cnn2C2CCN(C(=O)NC3CCC(F)(F)CC3)CC2)c1` [Example 41, N-(4,4-difluorocyclohexyl)-4-(5-methoxy-1H-indazol-1-yl)piperidine-1-carboxamide] belongs “stronger PAM activity than others”; to `CCc1ccc2c(cnn2[C@H]2CC[C@@H](NC(=O)C3CCC(F)(F)CC3)CC2)c1` [Example 4, N-(cis-4-(5-ethyl-1H-indazol-1-yl)cyclohexyl)-4,4-difluorocyclohexanecarboxamide], “stronger PAM activity than others”.

The test is the same for the next values; noted with them: test compound 10 μmol/L; ACh added at EC20; ratio of RLU (Max-Min) of test wells to control wells.
For the compound `CCc1ccc2c(cnn2C2CCCN(C(=O)NC3CCC(OC)CC3)CC2)c1` (stereo not shown) [Example 84], the “α7PAM (%) @ 10 μmol/L” value is listed as 179%. On the same count and under the same terms, to `O=C(Nc1ccc(C(F)(F)F)nc1)N1CCC(n2ncc3cc(C4CC4)ccc32)CC1` [Example 187] belongs 220%; to `[2H]C([2H])([2H])O[C@H]1CC[C@H](NC(=O)N2CCC(n3ncc4cc(C5CC5)ccc43)CC2)CC1` [Example 296, 4-(5-cyclopropyl-1H-indazol-1-yl)-N-{trans-4-[(^2H3)methoxy]cyclohexyl}piperidine-1-carboxamide], 1268%. As for `CCc1ccc2c(cnn2[C@H]2CC[C@@H](NC(=O)[C@H]3CC[C@H](OC)CC3)CC2)c1` [Example 122], the “α7PAM (%) @ 10 μmol/L” value is 410%. Still for that read-out and setting: to `CC(C)Oc1cccc2c1cnn2C1CCN(C(=O)NC2CCC(F)(F)CC2)CC1` [Example 183] belongs 342%; to `O=C(NC1CC(F)(F)C1)N1CCC(n2ncc3cc(C4CC4)ccc32)CC1` [Example 217], 517%. Same read-out and setting: to `O=C(Nc1ccc(Cl)nn1)N1CCC(n2ncc3cc(C4CC4)ccc32)CC1` [Example 204] belongs 193%. Same read-out and setting: to `COCc1cccc2c1cnn2C1CCN(C(=O)NC2CCC(F)(F)CC2)CC1` [Example 166] belongs 711%. For `COCC1CCC(NC(=O)N2CCC(n3ncc4cc(OC(F)(F)F)ccc43)CC2)CC1` (stereo not shown) [Example 228], the “α7PAM (%) @ 10 μmol/L” value is listed as 276%. As to `CCOc1c(CC)ccc2c1cnn2C1CCN(C(=O)NC2CCC(F)(F)CC2)CC1` [Example 271], the “α7PAM (%) @ 10 μmol/L” value is listed as 931%. Take `COC1CCC(NC(=O)N2CCC(n3ncc4cc(Br)ccc43)CC2)CC1` (stereo not shown) [Example 71]: the “α7PAM (%) @ 10 μmol/L” value worked out at 763%.

On to `CCCc1ccc2c(cnn2C2CCN(C(=O)NC3CCC(OC)CC3)CC2)c1` (stereo not shown) [Example 76], for which the “α7PAM (%) @ 10 μmol/L” value came to 420%. On the same count and under the same terms, to `CO[C@H]1CC[C@H](NC(=O)N2CCC(n3ncc4c(C)c(C)ccc43)CC2)CC1` [Example 225] belongs 480%; to `COC(C)Cc1ccc2c(cnn2C2CCN(C(=O)N[C@H]3CC[C@H](OC)CC3)CC2)c1` (stereo partly shown) [Example 247], 353%; to `[2H]C([2H])([2H])O[C@H]1CC[C@H](NC(=O)N2CCC(n3ncc4cc(OC(F)F)ccc43)CC2)CC1` [Example 326], 1251%. The same measure, in the same setting: to `COCc1nn(C2CCN(C(=O)NC3CCCCC3)CC2)c2ccc(C)cc12` [Example 68] belongs 430%; to `Cc1ccc2c(cnn2C2CCN(C(=O)C3CCC(F)(F)CC3)CC2)c1` [Example 138], 642%; to `CCOc1ccc2c(cnn2C2CCN(C(=O)N[C@H]3CC[C@H](OC)CC3)CC2)c1` [Example 30], 908%. The same measure, in the same setting: to `O=C(NC1CCC(F)(F)CC1)N1CCC(n2ncc3c(F)cccc32)CC1` [Example 190] belongs 256%; to `O=C(NC1CCCOC1)N1CCC(n2ncc3cc(C4CC4)ccc32)CC1` (stereo not shown) [Example 177], 712%; to `O=C(NC1CCC(F)(F)CC1)N1CCC(n2ncc3c(C(F)(F)F)cccc32)CC1` [Example 169], 359%. For `COC(C)c1ccc2c(cnn2C2CCN(C(=O)N[C@H]3CC[C@H](OC)CC3)CC2)c1` (stereo partly shown) [Example 245], the “α7PAM (%) @ 10 μmol/L” value is 182%. As for `O=C(NC1CCC(OC(F)F)CC1)N1CCC(n2ncc3cc(C4CC4)ccc32)CC1` (stereo not shown) [Example 205], the “α7PAM (%) @ 10 μmol/L” value was found to be 1187%. On the same count and under the same terms, to `CCOc1ccc2c(cnn2C2CCN(C(=O)c3ccc(C(F)(F)F)cn3)CC2)c1` [Example 132] belongs 361%. Regarding `CCc1cnc2c(cnn2C2CCN(C(=O)NC3CCOCC3)CC2)c1` [Example 101], the “α7PAM (%) @ 10 μmol/L” value was determined as 338%.

With `O=C(NC1CCOCC1)N1CCC(n2ncc3c(OC(F)(F)F)cccc32)CC1` [Example 304], the “α7PAM (%) @ 10 μmol/L” value was found to be 380%. With `Cc1cccc2c1cnn2C1CCN(C(=O)NC2CCC(F)(F)CC2)CC1` [Example 93], the “α7PAM (%) @ 10 μmol/L” value came to 934%. As for `COC1CCC(NC(=O)N2CCC(n3nc(C)c4cc(C)ccc43)CC2)CC1` (stereo not shown) [Example 89], the “α7PAM (%) @ 10 μmol/L” value came to 1506%. With `CCc1ccc2c(c1)c(OC(C)C)nn2C1CCN(C(=O)NC2CCCC2)CC1` [Example 58], the “α7PAM (%) @ 10 μmol/L” value is 577%. Same read-out and setting: to `O=C(NC1CCC(F)(F)CC1)N1CCC(n2ncc3cc(OC(F)F)ccc32)CC1` [Example 290] belongs 1173%; to `COc1c(C)ccc2c1cnn2C1CCN(C(=O)NC2CCOCC2)CC1` [Example 268], 361%. Still for that read-out and setting: to `COc1ccc2c(cnn2C2CCN(C(=O)N[C@H]3CC[C@H](OC)CC3)CC2)c1OC` [Example 306] belongs 147%; to `[2H]C([2H])([2H])O[C@H]1CC[C@H](NC(=O)N2CCC(n3ncc4cc(C(F)(F)F)ccc43)CC2)CC1` [Example 178, N-{trans-4-[(^2H3)methoxy]cyclohexyl}-4-[5-(trifluoromethyl)-1H-indazol-1-yl]piperidine-1-carboxamide], 524%.

Consider `CCOc1c(C)ccc2c1cnn2C1CCN(C(=O)NC2CCOCC2)CC1` [Example 273], for which the “α7PAM (%) @ 10 μmol/L” value is listed as 341%. For the compound `Cc1ccc2c(cnn2C2CCN(C(=O)NC3CCC(OCC(F)(F)F)CC3)CC2)c1` (stereo not shown) [Example 83], the “α7PAM (%) @ 10 μmol/L” value was found to be 420%. The same measure, in the same setting: to `COCC1CCC(NC(=O)N2CCC(n3ncc4cc(F)ccc43)CC2)CC1` (stereo not shown) [Example 236] belongs 331%; to `COC1CCC(NC(=O)N2CCC(n3nc(C4CCOCC4)c4cc(C)ccc43)CC2)CC1` (stereo not shown) [Example 55], 603%; to `COC1CC1c1ccc2c(cnn2C2CCN(C(=O)N[C@H]3CC[C@H](OC)CC3)CC2)c1` (stereo partly shown) [Example 246], 364%.

Regarding `COc1nn(C2CCN(C(=O)NC3CCOCC3)CC2)c2ccc(OC(F)(F)F)cc12` [Example 264], the “α7PAM (%) @ 10 μmol/L” value turned out to be 263%. `CC1(C)CC(NC(=O)N2CCC(n3ncc4cc(C5CC5)ccc43)CC2)CCO1` (stereo not shown) [Example 210]: the “α7PAM (%) @ 10 μmol/L” value is reported as 209%.

As for `COC1CCC(NC(=O)N2CCC(n3ncc4c(C)cccc43)CC2)CC1` (stereo not shown) [Example 95], the “α7PAM (%) @ 10 μmol/L” value stood at 133%. Still for that read-out and setting: to `COC(C)c1cccc2c1cnn2C1CCN(C(=O)NC2CCC(F)(F)CC2)CC1` (stereo not shown) [Example 231] belongs 647%; to `CCOCc1cccc2c1cnn2C1CCN(C(=O)NC2CCCCC2)CC1` [Example 167], 434%. Same read-out and setting: to `CCc1ccc2c(c1)c(OC(C)C)nn2C1CCN(C(=O)NC2CCC(F)(F)CC2)CC1` [Example 62] belongs 653%; to `COC1CC1c1ccc2c(cnn2C2CCN(C(=O)NC3CCC(F)(F)CC3)CC2)c1` (stereo not shown) [Example 248], 851%. In the case of `Cc1ccc2c(cnn2C2CCN(C(=O)C3CCCCC3)CC2)c1` [Example 105], the “α7PAM (%) @ 10 μmol/L” value worked out at 338%. Same read-out and setting: to `CO[C@H]1CC[C@@H](NC(=O)N2CCC(n3ncc4cc(C5CC5)ccc43)CC2)CC1` [Example 189] belongs 257%. Same read-out and setting: to `Cc1c(OC(F)F)ccc2c1cnn2C1CCN(C(=O)NC2CCOCC2)CC1` [Example 294] belongs 523%; to `O=C(NC1CCOCC1)N1CCC(n2ncc3cc(C4CC4)ccc32)CC1` [Example 75], 621%; to `O=C(C1CCOCC1)N1CCC(n2ncc3cc(Br)ccc32)CC1` [Example 102], 228%.

Still in this test, the particulars now being: test compound 10 μmol/L; ACh added at EC20; ratio of RLU (Max-Min) of test wells to control wells; read-out: α7PAM (%) @ 10 μmol/L.
`CO[C@H]1CC[C@H](NC(=O)N2CCC(n3ncc4cc(OC5CC5)ccc43)CC2)CC1` [Example 230, 4-[5-(cyclopropoxy)-1H-indazol-1-yl]-N-(trans-4-methoxycyclohexyl)piperidine-1-carboxamide]: the activity at 10 µM was 621%.

Consider `CCOc1nn(C2CCN(C(=O)NC3CCOCC3)CC2)c2ccc(CC)cc12` [Example 2, 4-(3-ethoxy-5-ethyl-1H-indazol-1-yl)-N-(tetrahydro-2H-pyran-4-yl)piperidine-1-carboxamide], for which the activity at 10 µM worked out at 625%.

With `CCc1nn(C2CCN(C(=O)NC3CCC(F)(F)CC3)CC2)c2ccc(C)cc12` [Example 42, N-(4,4-difluorocyclohexyl)-4-(3-ethyl-5-methyl-1H-indazol-1-yl)piperidine-1-carboxamide], the activity at 10 µM came to 241%.

On to `CO[C@H]1CC[C@H](NC(=O)N2CCC(n3ncc4c(C)c(C5CC5)ccc43)CC2)CC1` [Example 277, 4-(5-cyclopropyl-4-methyl-1H-indazol-1-yl)-N-(trans-4-methoxycyclohexyl)piperidine-1-carboxamide], for which the activity at 10 µM was 729%. The same measure, in the same setting: to `O=C(NC1CCC(F)(F)CC1)N1CCC(n2ncc3cc(F)ccc32)CC1` [Example 28, N-(4,4-difluorocyclohexyl)-4-(5-fluoro-1H-indazol-1-yl)piperidine-1-carboxamide] belongs 340%.
